Experimental data taken from the supplement of paper PMC10331698.
± gives the standard deviation of the averaged measurements.

Key:
Octafluoroadipic acid = compound: O=C(O)C(F)(F)C(F)(F)C(F)(F)C(F)(F)C(=O)O [Octafluoroadipic acid] (in DMSO); assay: level (log10 ratio to DMSO vehicle control); higher = higher biomarker level / cell amount than vehicle control
Experimental: (§1)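 BioMAP Diversity Plus panel of 12 human primary cell co-culture systems (3C, 4H, LPS, SAg, BT, BF4T, BE3C, CASM3C, HDF3CGF, KF3CT, MyoF, Mphg). Compounds were added 1 h before stimulation and left for 24 h (MyoF 48 h; BT 72 h for soluble read-outs or 6 d for IgG). Biomarkers were read by ELISA, cytotoxicity by SRB, PBMC viability and proliferation by Alamar Blue. Each well value was divided by the mean of 8 DMSO control wells on the same plate and log10 transformed; duplicate blinded samples were tested at 4 concentrations.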

[1] = compound: OCC(F)(F)C(F)(F)C(F)(F)C(F)(F)C(F)(F)C(F)(F)CO [1H,1H,8H,8H-Perfluorooctane-1,8-diol] (in DMSO); assay: as above
Experimental: as §1

Row | Test System | level (log10) (Octafluoroadipic acid; 6700 nM) | level (log10) (Octafluoroadipic acid; 20000 nM) | level (log10) (Octafluoroadipic acid; 60000 nM) | level (log10) ([1]; 6700 nM) | level (log10) ([1]; 20000 nM) | level (log10) ([1]; 60000 nM)
1 | BE3C:CXCL10/IP-10 | -0.0035 ± 0.0035 | -0.002 ± 0.011 | 0.017 ± 0.023 | 0.003 ± 0.013 | -0.006 ± 0.0014 | -0.018 ± 0.0028
2 | BE3C:CXCL11/I-TAC | -0.0025 ± 0.0078 | 0.0085 ± 0.012 | 0.0085 ± 0.0078 | -0.006 ± 0.0085 | -0.0045 ± 0.026 | -0.0165 ± 0.0064
3 | BE3C:EGFR | -0.012 ± 0.017 | -0.0015 ± 0.005 | 0.0105 ± 0.016 | -0.019 ± 0.024 | -0.01 ± 0.017 | -0.0315 ± 0.005
4 | BE3C:HLA-DR | 0 ± 0.021 | 0.0045 ± 0.018 | 0.012 ± 0.0028 | 0.009 | -0.0245 ± 0.0064 | -0.039 ± 0.014
5 | BE3C:IL-1alpha | 0.0155 ± 0.0064 | 0.009 ± 0.023 | -0.031 ± 0.0028 | 0.002 ± 0.0042 | 0.0015 ± 0.0064 | 0.0055 ± 0.029
6 | BF4T:CCL2/MCP-1 | 0.0145 ± 0.012 | -0.011 | 0.0225 ± 0.057 | -0.0075 ± 0.0064 | -0.017 ± 0.0014 | -0.009 ± 0.024
7 | BF4T:CCL26/Eotaxin-3 | 0.0055 ± 0.025 | -0.007 ± 0.042 | 0.009 ± 0.04 | 0.004 ± 0.0057 | -0.009 ± 0.033 | -0.019 ± 0.018
8 | BF4T:CD54/ICAM-1 | -0.001 ± 0.025 | -0.007 ± 0.017 | 0.0065 ± 0.029 | -0.0275 ± 0.0092 | -0.015 ± 0.013 | -0.029 ± 0.017
9 | BF4T:CD90 | 0.005 ± 0.0042 | -0.0075 ± 0.0035 | -0.006 | -0.011 ± 0.023 | -0.005 ± 0.028 | -0.014 ± 0.018
10 | BF4T:CD106/VCAM-1 | -0.01 ± 0.0014 | -0.0095 ± 0.016 | 0.002 ± 0.048 | -0.006 ± 0.014 | 0.001 ± 0.0014 | -0.006 ± 0.0057
11 | BF4T:CXCL8/IL-8 | 0.0435 ± 0.0021 | -0.0005 ± 0.021 | 0.013 ± 0.05 | -0.003 ± 0.0042 | -0.0095 ± 0.0064 | 0.001 ± 0.0071
12 | BF4T:IL-1alpha | -0.003 ± 0.0014 | -0.016 ± 0.0042 | 0.002 ± 0.0014 | -0.0105 ± 0.011 | -0.0135 ± 0.013 | 0.0145 ± 0.029
13 | BF4T:Keratin 8/18 | 0.002 ± 0.023 | -0.004 ± 0.021 | 0.004 ± 0.037 | -0.0005 ± 0.0021 | 0.021 ± 0.0014 | -0.003 ± 0.0042
14 | BF4T:MMP-1 | 0.0065 ± 0.011 | -0.0025 ± 0.015 | 0.007 ± 0.0028 | -0.0055 ± 0.0064 | -0.0135 ± 0.022 | 0.019 ± 0.03
15 | BF4T:MMP-3 | 0.0055 ± 0.033 | -0.0055 ± 0.035 | 0.0025 ± 0.022 | -0.013 ± 0.0042 | 0.018 ± 0.013 | -0.0095 ± 0.0021
16 | BF4T:MMP-9 | -0.0075 ± 0.047 | -0.0065 ± 0.036 | 0.0165 ± 0.026 | -0.019 ± 0.03 | -0.008 ± 0.011 | 0.0075 ± 0.0092
17 | BF4T:PAI-I | -0.0045 ± 0.026 | -0.011 ± 0.013 | 0.007 ± 0.0071 | 0.018 ± 0.013 | 0 ± 0.0099 | -0.0065 ± 0.011
